What was measured:
[1] = biological target: Mitogen-activated protein kinase 1 (Homo sapiens, UniProt P28482); assay: Selectivity interaction (KinomeScan (DiscoverX)) EUB0001079a MAPK1; conditions: at 1 µM
[2] = biological target: T1, Protein kinase C iota type (Homo sapiens) (UniProt P41743); assay: Selectivity interaction (KinomeScan (DiscoverX)) EUB0001079a PRKCI; conditions: at 1 µM
T1 sequence (whole entry): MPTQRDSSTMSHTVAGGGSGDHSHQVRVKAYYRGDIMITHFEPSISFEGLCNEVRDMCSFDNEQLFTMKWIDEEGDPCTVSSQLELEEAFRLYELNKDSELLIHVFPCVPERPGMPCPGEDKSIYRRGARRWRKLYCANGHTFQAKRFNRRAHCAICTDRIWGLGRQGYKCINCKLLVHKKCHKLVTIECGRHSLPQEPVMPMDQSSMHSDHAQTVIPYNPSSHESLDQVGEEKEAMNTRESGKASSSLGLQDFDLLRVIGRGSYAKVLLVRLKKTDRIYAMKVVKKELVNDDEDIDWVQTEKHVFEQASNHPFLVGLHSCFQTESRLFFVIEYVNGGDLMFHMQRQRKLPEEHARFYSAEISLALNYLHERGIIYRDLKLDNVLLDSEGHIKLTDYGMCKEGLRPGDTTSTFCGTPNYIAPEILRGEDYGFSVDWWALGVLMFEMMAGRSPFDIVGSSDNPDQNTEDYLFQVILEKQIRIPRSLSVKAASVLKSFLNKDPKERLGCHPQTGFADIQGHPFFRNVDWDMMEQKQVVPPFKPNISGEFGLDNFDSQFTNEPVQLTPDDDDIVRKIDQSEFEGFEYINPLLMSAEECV

[3] = biological target: Serine/threonine-protein kinase OSR1 (Homo sapiens) (UniProt O95747); assay: Selectivity interaction (KinomeScan (DiscoverX)) EUB0000666a OXSR1; conditions: at 10 µM
[4] = biological target: Phosphatidylinositol 4-phosphate 3-kinase C2 domain-containing subunit alpha (Homo sapiens) (UniProt O00443); assay: Selectivity interaction (Adapta Assay) EUB0001632a PIK3C2A; conditions: at 10 µM
[5] = biological target: Serine/threonine-protein kinase 38 (Homo sapiens) (UniProt Q15208); assay: Selectivity interaction (KinomeScan (DiscoverX)) EUB0000607a STK38; conditions: at 10 µM
[6] = biological target: T2, Hormonally up-regulated neu tumor-associated kinase (Homo sapiens) (UniProt P57058); assay: Selectivity interaction (KinomeScan (DiscoverX)) EUB0000595a HUNK; conditions: at 10 µM
T2 sequence (whole entry): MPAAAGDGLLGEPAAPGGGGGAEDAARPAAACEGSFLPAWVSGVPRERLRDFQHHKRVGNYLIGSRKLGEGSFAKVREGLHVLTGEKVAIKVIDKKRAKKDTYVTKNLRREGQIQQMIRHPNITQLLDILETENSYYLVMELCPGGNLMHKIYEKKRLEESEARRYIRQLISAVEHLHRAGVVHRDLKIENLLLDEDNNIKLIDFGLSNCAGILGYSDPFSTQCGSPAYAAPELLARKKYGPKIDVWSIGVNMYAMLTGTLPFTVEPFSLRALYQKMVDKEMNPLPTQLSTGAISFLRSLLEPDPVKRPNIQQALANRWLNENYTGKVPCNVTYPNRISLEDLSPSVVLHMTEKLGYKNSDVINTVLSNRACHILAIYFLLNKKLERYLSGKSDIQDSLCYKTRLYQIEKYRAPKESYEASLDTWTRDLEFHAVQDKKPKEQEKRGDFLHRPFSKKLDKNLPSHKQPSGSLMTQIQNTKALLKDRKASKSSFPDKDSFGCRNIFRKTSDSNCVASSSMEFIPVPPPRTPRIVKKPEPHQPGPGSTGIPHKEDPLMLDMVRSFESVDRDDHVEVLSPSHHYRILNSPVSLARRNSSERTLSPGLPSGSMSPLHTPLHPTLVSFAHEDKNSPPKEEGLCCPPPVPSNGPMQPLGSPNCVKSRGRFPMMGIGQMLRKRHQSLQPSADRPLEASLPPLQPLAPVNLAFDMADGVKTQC

[7] = biological target: Dual specificity mitogen-activated protein kinase kinase 1 (Homo sapiens, UniProt Q02750); assay: Selectivity interaction (Kinase panel (Eurofins)) EUB0001564a MAP2K1; conditions: at 1 µM
[8] = biological target: T3, Serine/threonine-protein kinase Nek10 (Homo sapiens) (UniProt Q6ZWH5); assay: Selectivity interaction (Ambit KINOMEscan and KiNATiv profiling in Jurkat cells) EUB0000090b NEK10; assay type: cell-based; conditions: at 1 µM
T3 sequence (whole entry): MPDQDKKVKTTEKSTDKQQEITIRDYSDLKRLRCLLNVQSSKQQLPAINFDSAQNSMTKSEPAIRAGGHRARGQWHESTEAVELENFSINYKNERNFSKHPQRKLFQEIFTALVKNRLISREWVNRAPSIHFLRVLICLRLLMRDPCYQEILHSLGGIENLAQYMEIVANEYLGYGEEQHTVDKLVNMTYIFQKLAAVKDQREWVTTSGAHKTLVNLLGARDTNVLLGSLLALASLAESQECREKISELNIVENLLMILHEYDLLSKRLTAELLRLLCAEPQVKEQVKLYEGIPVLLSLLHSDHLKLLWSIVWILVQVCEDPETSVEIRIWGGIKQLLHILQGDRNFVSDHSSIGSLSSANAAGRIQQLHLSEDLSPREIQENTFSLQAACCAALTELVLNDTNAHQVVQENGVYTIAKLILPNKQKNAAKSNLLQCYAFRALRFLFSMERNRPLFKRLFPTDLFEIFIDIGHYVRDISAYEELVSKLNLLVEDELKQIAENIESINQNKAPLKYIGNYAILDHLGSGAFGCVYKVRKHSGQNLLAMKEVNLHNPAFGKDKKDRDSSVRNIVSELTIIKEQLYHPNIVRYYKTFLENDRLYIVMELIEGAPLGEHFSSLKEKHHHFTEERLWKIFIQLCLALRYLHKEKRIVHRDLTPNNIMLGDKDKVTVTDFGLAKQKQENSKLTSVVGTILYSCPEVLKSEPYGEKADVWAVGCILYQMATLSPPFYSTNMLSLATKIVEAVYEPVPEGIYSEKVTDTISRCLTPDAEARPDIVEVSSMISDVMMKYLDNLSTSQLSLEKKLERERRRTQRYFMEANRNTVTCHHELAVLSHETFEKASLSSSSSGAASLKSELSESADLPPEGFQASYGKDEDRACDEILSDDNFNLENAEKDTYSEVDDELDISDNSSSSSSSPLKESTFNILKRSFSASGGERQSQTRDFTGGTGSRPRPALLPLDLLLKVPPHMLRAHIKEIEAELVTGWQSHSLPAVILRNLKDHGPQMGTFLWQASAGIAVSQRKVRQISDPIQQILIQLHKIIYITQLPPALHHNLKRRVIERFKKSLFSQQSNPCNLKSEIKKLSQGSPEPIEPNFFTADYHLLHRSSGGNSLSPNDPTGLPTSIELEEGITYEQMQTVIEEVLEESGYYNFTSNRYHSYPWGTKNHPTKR

[9] = biological target: RAC-beta serine/threonine-protein kinase (Homo sapiens) (UniProt P31751); assay: Selectivity interaction (ActivX KiNativ screen (ex vivo kinase selectivity in human PBMCs)) EUB0001619a AKT2; assay type: cell-based; conditions: PBMC, at 1 µM
RAC-beta serine/threonine-protein kinase (Homo sapiens), sequence (P31751 whole entry): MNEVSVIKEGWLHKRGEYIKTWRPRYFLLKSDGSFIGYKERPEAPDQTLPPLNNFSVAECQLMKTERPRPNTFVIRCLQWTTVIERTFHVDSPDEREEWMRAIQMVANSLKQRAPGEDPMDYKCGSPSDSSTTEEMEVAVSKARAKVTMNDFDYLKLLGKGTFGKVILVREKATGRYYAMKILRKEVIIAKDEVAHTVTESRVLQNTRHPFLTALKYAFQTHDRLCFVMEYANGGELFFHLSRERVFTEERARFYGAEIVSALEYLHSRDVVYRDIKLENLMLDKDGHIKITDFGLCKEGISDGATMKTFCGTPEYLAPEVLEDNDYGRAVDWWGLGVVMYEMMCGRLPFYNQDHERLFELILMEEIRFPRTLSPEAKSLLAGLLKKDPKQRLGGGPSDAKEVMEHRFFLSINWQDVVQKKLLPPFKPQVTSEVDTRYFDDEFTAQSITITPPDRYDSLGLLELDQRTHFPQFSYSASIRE

Serine/threonine-protein kinase 38 (Homo sapiens), sequence (Q15208 2-465 limits assumed): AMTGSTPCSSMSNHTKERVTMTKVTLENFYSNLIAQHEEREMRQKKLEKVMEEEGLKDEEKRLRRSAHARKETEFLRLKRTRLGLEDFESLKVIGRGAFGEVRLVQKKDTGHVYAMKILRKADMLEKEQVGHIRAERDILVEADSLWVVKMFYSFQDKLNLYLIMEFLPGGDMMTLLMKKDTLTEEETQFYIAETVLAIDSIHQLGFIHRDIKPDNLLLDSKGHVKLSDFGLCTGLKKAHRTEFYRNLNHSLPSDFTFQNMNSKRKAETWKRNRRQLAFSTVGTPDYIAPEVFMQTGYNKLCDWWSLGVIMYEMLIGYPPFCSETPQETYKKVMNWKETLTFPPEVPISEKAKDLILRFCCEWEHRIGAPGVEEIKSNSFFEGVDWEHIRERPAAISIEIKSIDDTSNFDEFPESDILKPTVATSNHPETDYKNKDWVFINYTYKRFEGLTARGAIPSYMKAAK
Phosphatidylinositol 4-phosphate 3-kinase C2 domain-containing subunit alpha (Homo sapiens), sequence (O00443 whole entry, the tested form may be a part): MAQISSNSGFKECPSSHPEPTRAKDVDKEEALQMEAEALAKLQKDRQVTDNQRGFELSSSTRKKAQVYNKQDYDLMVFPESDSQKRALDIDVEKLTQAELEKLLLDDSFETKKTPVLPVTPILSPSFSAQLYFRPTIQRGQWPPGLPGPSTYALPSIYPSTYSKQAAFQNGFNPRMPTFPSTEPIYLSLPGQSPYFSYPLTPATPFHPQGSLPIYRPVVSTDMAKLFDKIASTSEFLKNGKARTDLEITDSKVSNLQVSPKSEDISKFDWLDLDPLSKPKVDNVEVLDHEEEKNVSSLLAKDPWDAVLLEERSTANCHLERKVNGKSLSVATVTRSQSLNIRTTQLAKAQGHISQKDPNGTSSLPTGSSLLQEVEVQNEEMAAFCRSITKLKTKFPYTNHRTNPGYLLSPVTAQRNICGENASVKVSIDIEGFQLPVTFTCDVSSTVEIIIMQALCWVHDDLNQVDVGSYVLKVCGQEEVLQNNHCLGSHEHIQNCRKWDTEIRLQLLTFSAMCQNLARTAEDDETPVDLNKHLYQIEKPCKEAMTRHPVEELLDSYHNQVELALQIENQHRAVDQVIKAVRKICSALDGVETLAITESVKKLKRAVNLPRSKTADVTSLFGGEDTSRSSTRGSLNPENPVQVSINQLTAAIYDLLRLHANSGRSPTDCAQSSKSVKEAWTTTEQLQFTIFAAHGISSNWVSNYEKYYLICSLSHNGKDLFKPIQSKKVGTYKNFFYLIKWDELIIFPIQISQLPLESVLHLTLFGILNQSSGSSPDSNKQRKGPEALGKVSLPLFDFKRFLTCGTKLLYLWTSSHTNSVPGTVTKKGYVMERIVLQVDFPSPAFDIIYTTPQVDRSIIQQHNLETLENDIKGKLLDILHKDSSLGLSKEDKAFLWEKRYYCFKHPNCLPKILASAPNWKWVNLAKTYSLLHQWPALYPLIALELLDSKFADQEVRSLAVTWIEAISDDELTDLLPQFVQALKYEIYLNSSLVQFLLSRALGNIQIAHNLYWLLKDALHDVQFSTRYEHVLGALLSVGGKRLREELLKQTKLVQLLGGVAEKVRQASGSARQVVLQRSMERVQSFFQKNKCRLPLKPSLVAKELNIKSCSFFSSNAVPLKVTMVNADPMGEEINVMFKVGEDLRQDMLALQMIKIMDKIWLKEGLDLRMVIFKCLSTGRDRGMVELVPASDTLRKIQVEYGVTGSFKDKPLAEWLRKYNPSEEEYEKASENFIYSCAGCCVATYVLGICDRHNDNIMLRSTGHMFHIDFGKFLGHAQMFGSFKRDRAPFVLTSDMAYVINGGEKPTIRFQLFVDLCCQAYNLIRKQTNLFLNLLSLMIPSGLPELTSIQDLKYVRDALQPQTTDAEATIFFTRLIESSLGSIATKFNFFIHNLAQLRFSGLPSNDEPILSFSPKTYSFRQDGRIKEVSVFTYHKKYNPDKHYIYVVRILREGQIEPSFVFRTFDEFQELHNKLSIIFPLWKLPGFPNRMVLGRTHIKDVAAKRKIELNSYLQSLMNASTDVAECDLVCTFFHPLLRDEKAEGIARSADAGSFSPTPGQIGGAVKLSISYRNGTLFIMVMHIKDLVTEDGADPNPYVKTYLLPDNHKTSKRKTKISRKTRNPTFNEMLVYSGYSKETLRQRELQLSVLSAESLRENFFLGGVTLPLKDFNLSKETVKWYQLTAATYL
Dual specificity mitogen-activated protein kinase kinase 1, sequence (Q02750 whole entry): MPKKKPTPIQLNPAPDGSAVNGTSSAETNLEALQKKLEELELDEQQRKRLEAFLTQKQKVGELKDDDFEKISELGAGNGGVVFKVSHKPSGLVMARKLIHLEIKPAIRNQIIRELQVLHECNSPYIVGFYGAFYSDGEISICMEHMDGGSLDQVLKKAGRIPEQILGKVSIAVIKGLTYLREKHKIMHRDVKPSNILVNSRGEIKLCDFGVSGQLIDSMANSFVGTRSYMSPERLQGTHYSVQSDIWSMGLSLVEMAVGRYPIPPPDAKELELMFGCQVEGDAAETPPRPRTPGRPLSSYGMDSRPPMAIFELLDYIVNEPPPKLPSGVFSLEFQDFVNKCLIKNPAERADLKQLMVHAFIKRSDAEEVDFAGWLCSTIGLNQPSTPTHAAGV
Serine/threonine-protein kinase OSR1 (Homo sapiens), sequence (O95747 2-527 limits assumed): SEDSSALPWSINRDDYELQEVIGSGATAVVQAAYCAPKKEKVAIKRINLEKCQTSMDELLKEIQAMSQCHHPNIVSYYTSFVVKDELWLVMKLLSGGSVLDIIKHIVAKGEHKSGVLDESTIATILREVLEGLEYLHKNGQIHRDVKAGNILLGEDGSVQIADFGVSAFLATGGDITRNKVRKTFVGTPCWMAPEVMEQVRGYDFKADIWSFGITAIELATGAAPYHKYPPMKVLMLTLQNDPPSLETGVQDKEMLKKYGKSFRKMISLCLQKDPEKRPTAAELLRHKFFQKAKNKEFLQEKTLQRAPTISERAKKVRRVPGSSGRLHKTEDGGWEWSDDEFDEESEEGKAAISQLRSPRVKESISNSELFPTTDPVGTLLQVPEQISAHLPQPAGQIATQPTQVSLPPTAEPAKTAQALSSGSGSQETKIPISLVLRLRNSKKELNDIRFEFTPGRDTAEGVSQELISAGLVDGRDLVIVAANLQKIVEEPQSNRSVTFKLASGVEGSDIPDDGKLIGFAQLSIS
Mitogen-activated protein kinase 1, sequence (P28482 whole entry): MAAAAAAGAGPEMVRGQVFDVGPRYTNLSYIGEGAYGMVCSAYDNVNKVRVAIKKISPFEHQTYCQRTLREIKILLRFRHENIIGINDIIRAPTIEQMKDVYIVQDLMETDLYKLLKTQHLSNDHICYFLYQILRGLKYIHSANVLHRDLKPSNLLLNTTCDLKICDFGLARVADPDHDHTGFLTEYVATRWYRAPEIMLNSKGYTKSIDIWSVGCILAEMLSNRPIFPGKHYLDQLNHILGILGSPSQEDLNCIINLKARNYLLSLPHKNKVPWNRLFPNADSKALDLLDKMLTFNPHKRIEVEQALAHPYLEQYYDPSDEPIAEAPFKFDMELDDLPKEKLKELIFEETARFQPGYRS

Molecule `Nc1cnc(N2CCc3cc(S(=O)(=O)Nc4c(F)cc(Cl)cc4F)cc(N4CCCC4=O)c32)nc1` [TP-020n] has a % of control [1] of 100% and a % of control [2] of 100%.
With `O=C(NOC[C@H](O)CO)c1ccc(F)c(F)c1Nc1ccc(I)cc1F` the % of control [3] was 100%.
`Cn1cc(-n2cnc3c(NCc4nc5cc(Cl)c(Cl)cc5[nH]4)nc(N4CCOCC4)nc32)cn1` gave a % of inhibition [4] of 5.89%.
Molecule `CNC(=O)Nc1ccc(-c2nc(N3CC4CCC(C3)O4)c3cnn(C4CCC5(CC4)OCCO5)c3n2)cc1` has a % of control [5] of 100%.
`COCC(=O)NC/C=C/c1ccc2ncnc(Nc3ccc(Oc4ccc(C)nc4)c(C)c3)c2c1` [CP-724714] showed a % of control [6] of 70%.
Work on `CC[C@@H](Nc1c(C#N)c(-c2ccc(-c3cccc(C)c3F)cc2)nc2cnccc12)C(=O)O` [BAY-091] yielded a % of inhibition [7] of 21.5%.
With `CN(C)C/C=C/C(=O)Nc1ccc(C(=O)N2CCCC(Nc3ncc(Cl)c(-c4c[nH]c5ccccc45)n3)C2)cc1` (centres undefined) the % of control [8] was 100%.
With `N#Cc1cccc(-c2c[nH]c3ncnc(N4CCOCC4)c23)c1` the % of inhibition [9] was 7%.
